The record followed here is US20260092061A1, “COMPOUNDS FOR TARGETED PROTEIN DEGRADATION” (Amphista Therapeutics Limited, priority 2022, published 2026).

The term DC50 denotes the concentration giving 50% degradation.

The target in assay [1] is T1, BRD9 (Homo sapiens, UniProt Q9H8M2).
T1 sequence (Q9H8M2 1-597): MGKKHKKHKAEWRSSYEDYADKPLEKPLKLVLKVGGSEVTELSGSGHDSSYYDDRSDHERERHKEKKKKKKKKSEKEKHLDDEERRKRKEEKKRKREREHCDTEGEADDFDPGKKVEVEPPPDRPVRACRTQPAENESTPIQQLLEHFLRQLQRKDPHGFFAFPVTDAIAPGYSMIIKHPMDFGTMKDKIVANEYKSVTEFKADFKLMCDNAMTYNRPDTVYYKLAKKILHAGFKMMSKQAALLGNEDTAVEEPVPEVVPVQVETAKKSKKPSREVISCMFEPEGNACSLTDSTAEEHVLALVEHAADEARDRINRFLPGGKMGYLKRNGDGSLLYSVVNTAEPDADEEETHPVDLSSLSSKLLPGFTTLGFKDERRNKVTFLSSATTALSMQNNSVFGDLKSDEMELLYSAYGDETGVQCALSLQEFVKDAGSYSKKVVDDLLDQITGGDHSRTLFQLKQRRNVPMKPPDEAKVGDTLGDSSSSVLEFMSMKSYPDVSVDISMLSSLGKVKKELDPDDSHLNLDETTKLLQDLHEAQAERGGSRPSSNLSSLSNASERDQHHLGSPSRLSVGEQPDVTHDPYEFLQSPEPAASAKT
Nature of the assay: BRD9 degradation, HiBiT-BRD9 KI HEK293 (LgBiT) cells, NanoGlo Lytic Endpoint assay (Assay Protocol 1). In kind it is cell-based. Particulars: BRD9 degradation; for Dmax at 1 µM / Dmax: HEK293; for Dmax at 1 µM: 1 μM compound at 6 h of treatment, read-out: Assay 1 Dmax. In a few lines: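 HiBiT-tagged BRD9 knock-in HEK293 (LgBiT) cells exposed to compounds for 6 h at 37 °C, 5% CO2. Residual BRD9 measured by HiBiT lytic luminescence. % BRD9 remaining normalised to DMSO-treated cells (high) and no-cell wells (low).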
Background: With HiBiT, luminescence reflects the tagged protein that the partner subunit can reach.

Assay [2] concerns the target T1, BRD9. Nature of the assay: Degradation of BRD9 (IF), immunofluorescence in MV4-11 cells, 24 hours (Assay Protocol 2). In kind it is cell-based. Details: A suspension of MV4-11 cells (ATCC CRL-9591) was prepared; host or cells: MV4-11. In a few lines: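 % BRD9 remaining, scaled between DMSO (high) and 100 nM CFT-8634 (low) control wells, derives from mean Alexa 647 contrast in central nuclei by high-content imaging. MV4-11 cells had 24 h compound exposure at 37° C. before PFA fixation, Triton permeabilisation and anti-BRD9 E4Q3F immunostaining.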

Setting [3] is: Table 2, Assay Protocol 1, 6 h of treatment, read-out: Assay 1 DC50.
Setting [4] is: MV4-11, 24 h, Table 2, BRD9 degradation (IF), Assay Protocol 2, MV4-11 cells, read-out: Assay 2 DCmax.
Setting [5] is: Table 2, BRD9 degradation (IF), Assay Protocol 2, MV4-11 cells, read-out: Assay 2 DC50.
Setting [6] is: Assay protocol 1, read-out: DC50.
Setting [7] is: Assay protocol 1, read-out: Dmax.
The mark [8] stands for this setting: Assay protocol 2, BRD9 degradation, read-out: DC50.
Setting [9] is: MV4-11, Assay protocol 2, BRD9 degradation, read-out: Dmax.
Setting [10] is: Table 4, determined according to Assay Protocol 1, read-out: Dmax^1.
Setting [11] is: MV4-11, Table 4, BRD9 degradation, determined according to Assay Protocol 2, read-out: Dmax^2.
The mark [12] stands for this setting: Table 4, BRD9 degradation, determined according to Assay Protocol 2, read-out: DC50^2.

With `COc1cc(-c2cn(C)c(=O)c3cnccc23)cc(OC)c1CN1CCCN(Cc2cccc3c2CCN(C(=O)/C(C#N)=C/C(C)(C)C)C3C)CC1` (mixture of isomers) [Compound A31, (E/Z)-2-(5-((4-(2,6-dimethoxy-4-(2-methyl-1-oxo-1,2-dihydro-2,7-naphthyridin-4-yl)benzyl)-1,4-diazepan-1-yl)methyl)-1-methyl-1,2,3,4-tetrahydroisoquinoline-2-carbonyl)-4,4-dimethylpent-2-enenitrile], the Dmax at 1 µM in assay [1] (Table 2, Assay Protocol 1) lay within 70 to 75%. Also, the DC50 in assay [1] (setting [3]) and in assay [2] (setting [5]) was 0.00125 to 0.01 µM throughout. Besides, the Dmax in assay [2] (setting [4]) is 40 to 70%.
For `COc1cc(-c2cn(C)c(=O)c(C)c2C)cc(OC)c1CN(C)C(=O)c1cccc2c1CCN(C(=O)/C(C#N)=C/c1cccc(Br)n1)C2C` (mixture of isomers) [Compound B16, (E/Z)-2-(3-(6-bromopyridin-2-yl)-2-cyanoacryloyl)-N-(2,6-dimethoxy-4-(1,4,5-trimethyl-6-oxo-1,6-dihydropyridin-3-yl)benzyl)-N,1-dimethyl-1,2,3,4-tetrahydroisoquinoline-5-carboxamide], the DC50 in assay [1] (setting [6]) was under 0.00125 µM; in assay [2] (setting [8]) it was 0.00125 to 0.01 µM. Besides, the Dmax in assay [1] (setting [7]) and in assay [2] (setting [9]) was over 75% throughout.
With `COc1cc(-c2cn(C)c(=O)c3ccsc23)cc(OC)c1CN1CCN(Cc2cccc3c2CCN(C(=O)/C(C#N)=C/C(C)(C)C)C3C)CC1` (mixture of isomers) [Compound B59, (E/Z)-2-(5-((4-(2,6-dimethoxy-4-(5-methyl-4-oxo-4,5-dihydrothieno[3,2-c]pyridin-7-yl)benzyl)piperazin-1-yl)methyl)-1-methyl-1,2,3,4-tetrahydroisoquinoline-2-carbonyl)-4,4-dimethypent-2-enenitrile], the Dmax in assay [1] (setting [7]) and in assay [2] (setting [9]) was 40 to 70% throughout.
As for `COc1cc(-c2cn(C)c(=O)c(C)c2C)ccc1OC1CCN(Cc2cccc3c2CCN(C(=O)/C(C#N)=C/C(C)(C)C)C3C)CC1` (mixture of isomers) [Compound B127, (E/Z)-2-(5-((4-(2-methoxy-4-(1,4,5-trimethyl-6-oxo-1,6-dihydropyridin-3-yl)phenoxy)piperidin-1-yl)methyl)-1-methyl-1,2,3,4-tetrahydroisoquinoline-2-carbonyl)-4,4-dimethylpent-2-enenitrile], the DC50 in assay [1] (setting [6]) and in assay [2] (setting [8]) was 0.00125 to 0.01 µM each time. Moreover, the Dmax in assay [1] (setting [7]) and in assay [2] (setting [9]) was over 75% throughout.
Consider `COc1cc(-c2cn(C)c(=O)c(C)c2C)cc(OC)c1CN(C)C1CCN(C(=O)/C(C#N)=C/C23CC(C2)C3)CC1` (mixture of isomers) [Compound B187, (E/Z)-3-(bicyclo[1.1.1]pentan-1-yl)-2-(4-((2,6-dimethoxy-4-(1,4,5-trimethyl-6-oxo-1,6-dihydropyridin-3-yl)benzyl)(methyl)amino)piperidine-1-carbonyl)acrylonitrile], for which the DC50 in assay [1] (setting [6]) and in assay [2] (setting [8]) was 0.00125 to 0.01 µM throughout. For the same compound, the Dmax in assay [1] (setting [7]) and in assay [2] (setting [9]) was over 75% throughout.
For the compound `COc1cc(-c2cn(C)c(=O)c(C)c2C)cc(OC)c1CN1CCN(c2cccc(C3CCCN3C(=O)/C(C#N)=C/C(C)(C)C)c2)CC1` (mixture of isomers) [Compound B41, (E/Z)-2-(2-(3-(4-(2,6-dimethoxy-4-(1,4,5-trimethyl-4-oxo-1,6-dihydropyridin-3-yl)benzyl)piperazin-1-yl)phenyl)pyrrolidine-1carbonyl)-4,4-dimethylpent-2-enenitrile], the DC50 is 0.00125 to 0.01 µM in assay [1] (setting [6]) and 0.01 to 0.025 µM in assay [2] (setting [8]). Further, the Dmax in assay [1] (setting [7]) and in assay [2] (setting [9]) was over 75% throughout.
`COc1cc(-c2cn(C)c(=O)c(C)c2C)cc(OC)c1C(=O)N(C)C1CCN(C(=O)/C(C#N)=C/C(C)(C)C)CC1` [BRD9u]: the Dmax in assay [1] (setting [10]) and in assay [2] (setting [11]) was 30 to 50% in each case. In assay [2] (setting [12]), the DC50 is under 0.025 µM.
Take `COc1cc(-c2cn(C)c(=O)c(C)c2C)cc(OC)c1C(=O)N1CC2CC1CN2C(=O)/C(C#N)=C/C(C)(C)C` (mixture of isomers) [BRD9t, (E/Z)-2-(5-(2,6-dimethoxy-4-(1,4,5-trimethyl-6-oxo-1,6-dihydropyridin-3-yl)benzoyl)-2,6-diazabicyclo[2.2.1]heptane-2-carbonyl)-4,4-dimethylpent-2-enenitrile]: the Dmax in assay [1] (setting [10]) and in assay [2] (setting [11]) was over 70% each time. The DC50 in assay [2] (setting [12]) is over 0.2 µM.
Turning to `COc1cc(-c2cn(C)c(=O)c(C)c2C)cc(OC)c1CN1CCN(Cc2cccc3c2CCN(C(=O)/C(C#N)=C/C(C)(C)N2CCN(C4COC4)CC2)C3C)C2(CC2)C1` (mixture of isomers) [Compound B126, (E/Z)-2-(5-((7-(2,6-dimethoxy-4-(1,4,5-trimethyl-6-oxo-1,6-dihydropyridin-3-yl)benzyl)-4,7-diazaspiro[2.5]octan-4-yl)methyl)-1-methyl-1,2,3,4-tetrahydroisoquinoline-2-carbonyl)-4-methyl-4-(4-(oxetan-3-yl)piperazin-1-yl)pent-2-enenitrile], the 50% degradation concentration (DC50) in assay [1] (setting [6]) and in assay [2] (setting [8]) was 0.00125 to 0.01 µM in each case. Moreover, the Dmax in assay [1] (setting [7]) was over 75%; in assay [2] (setting [9]), 70 to 75%.
As to `COc1cc(-c2cn(C)c(=O)c(C)c2C)cc(OC)c1CN1CCN(Cc2cccc3c2CCN(C(=O)/C(C#N)=C/c2ccc(C)cn2)C3C)CC1` (mixture of isomers) [Compound B18, (E/Z)-2-(5-((4-(2,6-dimethoxy-4-(1,4,5-trimethyl-6-oxo-1,6-dihydropyridin-3-yl)benzyl)piperazin-1-yl)methyl)-1-methyl-1,2,3,4-tetrahydroisoquinoline-2-carbonyl)-3-(5-methylpyridin-2-yl)acrylonitrile], in assay [1] (setting [6]), the half-maximal degradation concentration (DC50) lay in the range of 0.00125 to 0.01 µM. Further, the figures for the Dmax in assay [1] (setting [7]) and in assay [2] (setting [9]) were 40 to 70% and 25 to 40%, respectively.
For `COc1cc(-c2cn(C)c(=O)c(C)c2C)cc(OC)c1CN1CCN(Cc2cccc3c2CCN(C(=O)/C(C#N)=C/C(C)C)C3C)CC1` (mixture of isomers) [Compound A43], in assay [1] (Table 2, Assay Protocol 1), the Dmax at 1 µM was 70 to 75%. The results for the DC50 in assay [1] (setting [3]) and in assay [2] (setting [5]) were 0.00125 to 0.01 µM and under 0.00125 µM, respectively. Moreover, in assay [2] (setting [4]), the Dmax lay within 40 to 70%.
Consider `COc1cc(-c2cn(C)c(=O)c3cc(C(=O)NCCCCCOc4ccc5c(c4)CCN(C(=O)/C(C#N)=C/c4nccs4)C5C)sc23)cc(OC)c1CN(C)C` (mixture of isomers) [Compound A75, (E/Z)—N-(5-((2-(2-cyano-3-(thiazol-2-yl)acryloyl)-1-methyl-1,2,3,4-tetrahydroisoquinolin-6-yl)oxy)pentyl)-7-(4-((dimethylamino)methyl)-3,5-dimethoxyphenyl)-5-methyl-4-oxo-4,5-dihydrothieno[3,2-c]pyridine-2-carboxamide], for which the Dmax at 1 µM in assay [1] (Table 2, Assay Protocol 1) fell in the range of 40 to 70%. In addition, the results for the DC50 in assay [1] (setting [3]) and in assay [2] (setting [5]) were 0.025 to 0.3 µM and 0.00125 to 0.01 µM, respectively. For the same compound, the Dmax in assay [2] (setting [4]) is over 75%.
The like results for `COc1cc(-c2cn(C)c(=O)c3cnccc23)cc(OC)c1CN1CCN(Cc2cccc3c2CCN(C(=O)/C(C#N)=C/c2nccs2)C3C)CC1` (mixture of isomers) [Compound A2, (E/Z)-2-(5-((4-(2,6-dimethoxy-4-(2-methyl-1-oxo-1,2-dihydro-2,7-naphthyridin-4-yl)benzyl)piperazin-1-yl)methyl)-1-methyl-1,2,3,4-tetrahydroisoquinoline-2-carbonyl)-3-(thiazol-2-yl)acrylonitrile] were, in that order, 40 to 70%, under 0.00125 µM, under 0.00125 µM and 40 to 70%.
